These results are taken from EP4755888A1 (ILAb Co., Ltd., priority 2023, dated 2025).

Assay [1] concerns the target PD-1/PD-L1 (Homo sapiens, UniProt Q9NZQ7). Description: TR-FRET PD-1/PD-L1 binding inhibition at the molecular level (free proteins). The procedure, abridged:
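HTRF read-out at 665/620 nm after 2 h at room temperature. Detection used anti-Tag1 Eu cryptate plus anti-Tag2 XL665 antibodies. Tagged PD-L1 and PD-1 proteins were pre-mixed with compound across twelve […] 1:2 dilutions starting at 200 nM.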

Assay [2] deals with PD-1/PD-L1. The assay can be described thus: PD-1/PD-L1 blockade bioassay at the cellular level (PD-L1 aAPC/CHO-K1 cells + PD-1 Effector T cells, luciferase). The format is cell-based. To be noted: Homo sapiens, T-cell; PD-L1 aAPC/CHO-K1 cells with PD-1 Effector T cells, 6 hours, luminescence; read-out: PD-1/PD-L1 Inhibitory Activity EC50. As to the method:
In order to evaluate the effect of the compounds of the present invention, synthesized according to the above Preparation Examples, on blocking signal transduction between PD-1/PD-L1-expressing cells, a PD-1/PD-L1 blockade bioassay was conducted as described below.
Specifically, PD-L1 aAPC/CHO-K1 cells engineered to express human PD-L1 were seeded into a 96-well white plate and cultured for one day. On the following day, the compounds were prepared in a 96-well plate by serial dilution at concentrations starting from 10 µM and 5 µM, followed by 1/4 dilutions to obtain a total of ten concentrations. The culture medium in the plate seeded with the PD-L1 aAPC/CHO-K1 cell line was removed, and 40 µL of each prepared compound solution was added to a 96-well plate. Thereafter, 40 µL of PD-1 Effector T cell line engineered to express human PD-1 was additionally added, and then cultured for 6 hours. After 6 hours, 80 µL of Bio-Glo luciferase buffer was added to each well, followed by incubation at room temperature for 10 minutes, and luminescence was measured using a microplate reader.

In assay [3] the target is T1, PD-L1 expressed on the cell surface (MC38 hPD-L1) (Homo sapiens, UniProt Q9NZQ7).
T1 construct: expressed in transfected cells; host or cells: MC38 mouse colon cancer cell line expressing human PD-L1
T1 sequence (Q9NZQ7 19-290): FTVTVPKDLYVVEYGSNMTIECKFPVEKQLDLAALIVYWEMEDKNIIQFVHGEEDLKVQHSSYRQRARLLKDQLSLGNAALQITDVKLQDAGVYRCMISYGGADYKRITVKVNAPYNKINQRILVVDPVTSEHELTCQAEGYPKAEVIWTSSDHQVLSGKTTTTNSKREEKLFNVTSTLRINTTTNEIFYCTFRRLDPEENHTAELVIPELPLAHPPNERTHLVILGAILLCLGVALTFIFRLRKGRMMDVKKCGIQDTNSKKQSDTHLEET
Description: Internalization of cell surface PD-L1, flow cytometry with fluorescent staining. The format is cell-based. Particulars: MC38 hPD-L1 cells, 1 µM, 4 hours; untreated 90% to 99%. As to the method: In order to evaluate the internalization of cell surface PD-L1 induced by the compounds of the present invention synthesized according to the above Preparation Examples, a flow cytometry experiment using fluorescent staining was conducted as described below.
Specifically, a mouse colon cancer cell line expressing human PD-L1 (MC38 hPD-L1) was seeded into a 24-well plate at a density of 5 x 10^5 cells per well, followed by treatment with Compounds 206 to 227 at a concentration of 1 µM and incubation for 4 hours. After 4 hours, the compound-treated MC38 hPD-L1 cells were collected and stained with PE anti-hPD-L1 fluorecence at room temperature for 30 minutes. The rate of PD-L1 expression on the cell surface was then quantified using flow cytometry.
(In general: A flow cytometer gives signals particle by particle.)

Setting [4] is: Tag1-PD-L1 and Tag2-PD-1 proteins, twelve concentrations from 200 nM, 2 hours at room temperature, read-out: FRET assay (IC50).

Read-outs that look alike come from different tables or passages of the source.

Chain of PD-1/PD-L1 (Homo sapiens, UniProt Q9NZQ7) (Q9NZQ7 19-238 limits assumed): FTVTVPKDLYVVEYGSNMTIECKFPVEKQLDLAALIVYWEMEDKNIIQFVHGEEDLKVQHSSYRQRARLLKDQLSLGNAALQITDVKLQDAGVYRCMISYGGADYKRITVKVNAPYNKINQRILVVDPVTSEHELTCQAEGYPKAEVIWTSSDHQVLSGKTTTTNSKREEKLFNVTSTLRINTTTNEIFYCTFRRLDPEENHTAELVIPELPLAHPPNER

`O=C(Nc1cccc(-c2cccc(NC(=O)c3cc4n(n3)CCC[C@@H]4N3CC[C@@H](C(=O)O)C3)c2Cl)c1Cl)c1ccc(CNCCO)cn1` [Compound 208, (R)-1-((S)-2-((2,2'-dichloro-3'-(5-(((2-hydroxyethyl)amino)methyl)picolinamido)-[1,1'-biphenyl]-3-yl)carbamoyl)-4,5,6,7-tetrahydropyrazolo[1,5-a]pyridin-4-yl)pyrrolidine-3-carboxylic acid]: the IC50 on PD-1/PD-L1 [1] (setting [4]) was under 0.01 µM. The EC50 in the assay with PD-1/PD-L1 [2] came out at 0.0126 µM. The “Cell surface PD-L1 expression level (%)” value in assay [3] is recorded as 0.5%.
Taken in the same sequence, the figures for `Cc1c(NC(=O)c2cc3n(n2)CCC[C@@H]3N2CC[C@@H](C(=O)O)C2)cccc1-c1cccc(Nc2nc(C(F)F)nc3cc(CN4CC[C@@H](O)C4)cnc23)c1C` [Compound 210, (R)-1-((S)-2-((3'-((2-(difluoromethyl)-7-(((R)-3-hydroxypyrrolidin-1-yl)methyl)pyrido[3,2-d]pyrimidin-4-yl)amino)-2,2'-dimethyl-[1,1'-biphenyl]-3-yl)carbamoyl)-4,5,6,7-tetrahydropyrazolo[1,5-a]pyridin-4-yl)pyrrolidine-3-carboxylic acid] were under 0.01 µM, 0.016 µM and 3.2%.
Consider `Cc1c(NC(=O)c2cc3n(n2)CCC[C@@H]3NCC(=O)O)cccc1-c1cccc(Nc2nc(C(F)F)nc3cc(CN4CC[C@@H](O)C4)cnc23)c1C` [Compound 212, 2-(((S)-2-((3'-((2-(difluoromethyl)-7-(((R)-3-hydroxypyrrolidin-1-yl)methyl)pyrido[3,2-d]pyrimidin-4-yl)amino)-2,2'-dimethyl-[1,1'-biphenyl]-3-yl)carbamoyl)-4,5,6,7-tetrahydropyrazolo[1,5-a]pyridin-4-yl)amino)acetic acid], for which the IC50 at PD-1/PD-L1 [1] (setting [4]) was under 0.01 µM. Moreover, the EC50 in the assay with PD-1/PD-L1 [2] was determined as 0.0323 µM. For the same compound, the “Cell surface PD-L1 expression level (%)” value in assay [3] is reported as 22.1%.
Taken in the same sequence, the figures for `Cc1c(NC(=O)c2ccc(CN3CC[C@@H](O)C3)cn2)cccc1-c1cccc(NC(=O)c2cc3n(n2)CCC[C@@H]3NCCO)c1C` [Compound 214, (S)-4-((2-hydroxyethyl)amino)-N-(3'-(5-(((R)-3-hydroxypyrrolidin-1-yl)methyl)picolinamido)-2,2'-dimethyl-[1,1'-biphenyl]-3-yl)-4,5,6,7-tetrahydropyrazolo[1,5-a]pyridine-2-carboxamide] were under 0.01 µM, 0.0401 µM and 5.7%.
Take `Cc1c(NC(=O)c2ccc(CN3CC[C@@H](O)C3)cn2)cccc1-c1cccc(NC(=O)c2cc3n(n2)CCC[C@H]3N2CC[C@@H](O)C2)c1C` [Compound 217]: the IC50 at PD-1/PD-L1 [1] (read-out: FRET assay (IC50), Tag1-PD-L1 and Tag2-PD-1 proteins, twelve concentrations from 200 nM, 2 hours at room temperature) is under 0.01 µM. For the same compound, the EC50 in the assay with PD-1/PD-L1 [2] was 0.251 µM. Besides, the “Cell surface PD-L1 expression level (%)” value in assay [3] stood at 82.8%.
`O=C(O)CN[C@H]1CCCn2nc(C(=O)Nc3cccc(-c4cccc(NC(=O)c5ccc(CNCCO)cn5)c4Cl)c3Cl)cc21` [Compound 220, (S)-2-((2-((2,2'-dichloro-3'-(5-(((2-hydroxyethyl)amino)methyl)picolinamido)-[1,1'-biphenyl]-3-yl)carbamoyl)-4,5,6,7-tetrahydropyrazolo[1,5-a]pyridin-4-yl)amino)acetic acid]: at PD-1/PD-L1 [1] (setting [4]), the IC50 is under 0.01 µM. The EC50 in the assay on PD-1/PD-L1 [2] came to 0.0136 µM. Moreover, in assay [3], the “Cell surface PD-L1 expression level (%)” value is reported as 0.6%.
The matching figures for `O=C(O)CN[C@H]1CCCn2nc(C(=O)Nc3cccc(-c4cccc(NC(=O)c5ccc(CN6CC[C@@H](O)C6)cn5)c4Cl)c3Cl)cc21` [Compound 222, 2-(((S)-2-((2,2'-dichloro-3'-(5-(((R)-3-hydroxypyrrolidin-1-yl)methyl)picolinamido)-[1,1'-biphenyl]-3-yl)carbamoyl)-4,5,6,7-tetrahydropyrazolo[1,5-a]pyridin-4-yl)amino)acetic acid]: under 0.01 µM, 0.0348 µM and 0.3%.
